Measurements from patent US20130156753A1 (UNIVERSITY OF ROCHESTER, priority 2010, published 2013).

Tested on: HDAC5 nuclear export
Assay: PE-induced HDAC5 nuclear export in neonatal rat ventricular cardiomyocytes (NRVMs)
Type: cell-based
Description: A, B, Cos7 cells were co-transfected with expression vectors encoding GFP-tagged HDAC5 (GFP-HDAC5) and constitutively active protein kinases as indicated, and then exposed to phorbol-12-myristate-13-acetate (PMA, […]) for 3 hours. […] A-F, The cells were fixed and the subcellular localization of GFP-HDAC5 was visualized by fluorescence microscopy.
(§1) The cells were fixed and GFP-HDAC5 localization was analyzed by fluorescence microscopy. α-actinin was detected by immunofluorescence using an antibody against α-actinin and a fluorescein-conjugated secondary antibody. The nuclei were stained with DAPI.
as §1, with “DAPI. B, PKA expression in cell lysates were determined by Western blot using PKA antibody.” for “DAPI.”
The cells were fixed and endogenous HDAC5 localization was analyzed by fluorescence microscopy. HDAC5 and α-actinin was detected by immunocytochemistry with antibody against HDAC5 and α-actinin.
The cells were fixed and GFP-HDAC5 subcellular localization was analyzed by fluorescence microscopy and stained with an α-actinin antibody and DAPI.
Cos7 cells were grown in Dulbecco's Modified Eagle's Medium (DMEM) supplemented with fetal bovine serum (10%), 1-glutamine and penicillin/streptomycin. Primary cultures of neonatal rat cardiac ventricular myocytes (NRVMs) from 1- to 2-day-old Sprague-Dawley rats (Charles River Laboratories) were prepared. In brief, NRVMs were dispersed from the ventricles by digestion with collagenase type II (Worthington). Cells were cultured in Dulbecco's modified Eagle's medium (DMEM) supplemented with 1,000 mg/L D-glucose, L-glutamine, and 110 mg/L sodium pyruvate (GIBCO), fetal bovine serum (10%), and penicillin/streptomycin at 37° C. in a 5% CO2 humidified atmosphere for 2-3 days. For inducer or inhibitor studies, cells were pretreated with various inducers or inhibitors for 30 min in serum-free medium. Primary cultures of adult rat cardiomyocytes were prepared from 200-250g male Sprague-Dawley rats. Briefly, rats were anesthetized, hearts excised and placed in Krebs buffer and perfused and digested with endotoxin-free collagenase II (Worthington). This protocol typically yielded approximately 4×10^6 cells per heart, with ˜85% surviving, rod-shaped Ca2+-tolerant cells. Myocytes were allowed to attach to 20 μg/ml laminin coated plates in Modified Eagle Medium (MEM) containing 2.5% FBS, 25 mmol/L HEPES, 5 mmol/L taurine, 2 mmol/L carnitine, 2 mmol/L creatinine, 100 IU/ml penicillin, and 100 μg/ml streptomycin for 2 hrs before replacing with serum-free MEM containing 25 mmol/L HEPES, 5 mmol/L taurine, 2 mmol/L carnitine, 2 mmol/L creatinine, 100 IU/ml penicillin, and 100 μg/ml streptomycin.
Adenoviruses encoding Flag-tagged HDAC5 wild-type (WT), GFP-tagged HDAC5-WT, and YFP-tagged HDAC7-WT were generated as described previously (Ha C H, et al. (2008) Protein Kinase D-dependent Phosphorylation and Nuclear Export of Histone Deacetylase 5 Mediates Vascular Endothelial Growth Factor-induced Gene Expression and Angiogenesis. J Biol Chem 283(21):14590-14599; Ha C H et al. (2008) VEGF stimulates HDAC7 phosphorylation and cytoplasmic accumulation modulating matrix metalloproteinase expression and angiogenesis. Arterioscler Thromb Vasc Biol 28(10):1782-1788). Adenovirus expressing GFP-tagged HDAC5-S280A mutant, GFP-tagged HDAC5-S280D mutant and Flag-tagged HDAC5-S280A mutant were generated by using ViraPower Adenoviral Expression System (Invitrogen) according to the manufacturer's protocol. Adenovirus containing β-galactosidase (LacZ) or GFP was used as a control. […]

CCCC(=O)Nc1ncnc2c1ncn2[C@@H]1O[C@@H]2COP(=O)(O)O[C@H]2[C@H]1OC(=O)CCC [cAMP, Dibutyryl-cAMP]
HDAC5 translocation from nucleus to cytoplasm after PE (NRVMs with GFP-HDAC5-WT, cAMP 30 min, PE 24 hours): prevented from translocating from the nucleus to the cytoplasm | PE-induced nuclear export of GFP-HDAC5 S280A (NRVMs, S280A mutant, cAMP 500 μM or forskolin 10 μM 30 min, PE 3 hours): resistant to PKA inhibition | PE-stimulated HDAC5 nuclear export (NRVMs, adenoviral GFP-HDAC5, 30 min pretreatment, PE 10 μM 3 hours): markedly inhibited PE-stimulated HDAC5 nuclear export | PE-induced endogenous HDAC5 nuclear export (NRVMs, endogenous HDAC5, cAMP 500 μM 30 min, PE 10 μM 3 hours): same inhibitory effect
